Like-named read-outs stand apart in the source and are kept apart here.

For one test, the target named is AChE (Homo sapiens, UniProt P22303). In words: biochemical. To be noted: for inhibition at 50 µM: read-out: AChE % inhibition at 50 µM. As to the method:
(§1) Cholinesterase inhibitory activities of all analogs were evaluated spectrometrically using the modified Ellman method as previously reported[40],[41]. […] The absorbance of each well was measured at 415 nm using a microplate reader. IC50 values and inhibition values were calculated with the software GraphPad Prism as the mean of three independent experiments and are expressed as mean ± SEM.

A further test concerns the target BChE (Homo sapiens, UniProt P06276). Briefly: BChE inhibition, modified Ellman method. Format: biochemical. To be noted: for inhibition at 50 µM: read-out: BChE % inhibition at 50 µM. On the procedure:
as §1
In general terms: In Ellman's method for cholinesterases, released thiocholine reacts with DTNB.

[1] abbreviates: 50 µM, mean ± S.E of three to five independent experiments.

AChE, sequence (P22303 32-614): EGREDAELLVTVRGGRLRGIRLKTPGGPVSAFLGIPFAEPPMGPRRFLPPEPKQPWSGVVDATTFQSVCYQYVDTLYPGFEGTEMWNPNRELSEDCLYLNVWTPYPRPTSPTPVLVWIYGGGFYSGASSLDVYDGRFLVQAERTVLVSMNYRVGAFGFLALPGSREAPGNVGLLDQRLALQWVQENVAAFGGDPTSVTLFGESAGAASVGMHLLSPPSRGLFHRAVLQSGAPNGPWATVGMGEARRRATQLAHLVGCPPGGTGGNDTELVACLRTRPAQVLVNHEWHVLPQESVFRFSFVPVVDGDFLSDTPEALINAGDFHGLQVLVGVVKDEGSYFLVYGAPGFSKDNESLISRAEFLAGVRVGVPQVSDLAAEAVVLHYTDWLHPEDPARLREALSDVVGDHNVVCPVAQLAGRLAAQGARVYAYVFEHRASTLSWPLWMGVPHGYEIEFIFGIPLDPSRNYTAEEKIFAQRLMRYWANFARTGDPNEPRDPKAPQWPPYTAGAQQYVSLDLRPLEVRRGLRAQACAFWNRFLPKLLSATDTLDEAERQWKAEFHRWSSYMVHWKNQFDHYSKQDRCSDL
BChE, sequence (P06276 29-602): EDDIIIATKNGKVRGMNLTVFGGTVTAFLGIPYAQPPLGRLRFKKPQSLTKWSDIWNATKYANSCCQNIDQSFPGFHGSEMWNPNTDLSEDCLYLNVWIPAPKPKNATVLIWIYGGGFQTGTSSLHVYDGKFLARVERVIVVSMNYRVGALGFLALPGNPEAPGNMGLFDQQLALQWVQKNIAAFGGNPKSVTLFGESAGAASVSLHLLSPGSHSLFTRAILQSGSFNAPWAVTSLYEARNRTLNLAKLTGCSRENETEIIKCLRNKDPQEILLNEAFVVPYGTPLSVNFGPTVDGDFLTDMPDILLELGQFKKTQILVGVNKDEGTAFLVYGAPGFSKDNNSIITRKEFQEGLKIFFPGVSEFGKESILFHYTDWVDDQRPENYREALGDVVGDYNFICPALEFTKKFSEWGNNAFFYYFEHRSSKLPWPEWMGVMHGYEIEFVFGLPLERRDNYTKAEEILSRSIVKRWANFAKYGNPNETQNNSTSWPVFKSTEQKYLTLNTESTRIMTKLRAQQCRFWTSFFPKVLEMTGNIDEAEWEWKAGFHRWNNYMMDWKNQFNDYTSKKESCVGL

One may read the inhibition as the relative decrease from the control value, in per cent. For the molecule `COc1ccc(OC)c(NC2=C([N+](=O)[O-])C3(C(=O)Nc4ccc(Cl)cc43)C(C#N)=C(N)NN2)c1` (centres unmarked) [Compound 5d, 3-amino-5'-chloro-7-((2,5-dimethoxyphenyl)amino)-6-nitro-2'-oxo-1,2-dihydrospiro[[1,2]diazepine-5,3'-indoline]-4-carbonitrile], the inhibition at 50 µM at AChE (setting [1]) is 27.8 ± 5.26%; on BChE (setting [1]), 19.2 ± 4.07%.

For the molecule `N#CC1=C(N)NNC(Nc2ccc(O)cc2)=C([N+](=O)[O-])C12C(=O)Nc1c(C(F)(F)F)cccc12` (centres unmarked) [Compound 5v, 3-amino-7-((4-hydroxyphenyl)amino)-6-nitro-2'-oxo-7'-(trifluoromethyl)-1,2-dihydrospiro[[1,2]diazepine-5,3'-indoline]-4-carbonitrile], the values for the inhibition at 50 µM at AChE (setting [1]) and on BChE (setting [1]) were 17.7 ± 1.82% and 13 ± 1.14%, respectively.

As to `Cc1ccc(NC2=C([N+](=O)[O-])C3(C(=O)Nc4ccc(Cl)cc43)C(C#N)=C(N)NN2)cc1C` (centres unmarked) [Compound 5c, 3-amino-5'-chloro-7-((3,4-dimethylphenyl)amino)-6-nitro-2'-oxo-1,2-dihydrospiro[[1,2]diazepine-5,3'-indoline]-4-carbonitrile], the “AChE % inhibition at 50 µM” value on AChE (setting [1]) is on record as “Not active”. Also, at BChE (setting [1]), the inhibition at 50 µM came to 37 ± 3.78%.

One may read the IC50 as the concentration needed to halve the response being measured. For `N#CC1=C(N)NNC(Nc2ccc(O)cc2)=C([N+](=O)[O-])C12C(=O)Nc1c(Br)cc(Br)cc12` (centres unmarked) [Compound 5r, 3-amino-5',7'-dibromo-7-((4-hydroxyphenyl)amino)-6-nitro-2'-oxo-1,2-dihydrospiro[[1,2]diazepine-5,3'-indoline]-4-carbonitrile], the inhibition at 50 µM was found to be 46.7 ± 1.92% on AChE (setting [1]) and 51.7 ± 1.29% at BChE (setting [1]). The 50% inhibitory concentration (IC50) on BChE (mean ± S.E of three to five independent experiments, read-out: BChE IC50) stood at 45.7 ± 5.62 µM.

With `N#CC1=C(N)NNC(Nc2ccc(Cl)cc2)=C([N+](=O)[O-])C12C(=O)Nc1ccc([N+](=O)[O-])cc12` (centres unmarked) [Compound 5k, 3-amino-7-((4-chlorophenyl)amino)-5',6-dinitro-2'-oxo-1,2-dihydrospiro[[1,2]diazepine-5,3'-indoline]-4-carbonitrile], the inhibition at 50 µM amounted to 24.6 ± 1.7% on AChE and 17.9 ± 1.81% on BChE.

As for `COc1ccc(NC2=C([N+](=O)[O-])C3(C(=O)Nc4ccc(Cl)cc43)C(C#N)=C(N)NN2)cc1` (centres unmarked) [Compound 5b, 3-amino-5'-chloro-7-((4-methoxyphenyl)amino)-6-nitro-2'-oxo-1,2-dihydrospiro[[1,2]diazepine-5,3'-indoline]-4-carbonitrile], the inhibition at 50 µM at AChE (setting [1]) came to 42.8 ± 2.15%; on BChE (setting [1]), 36.8 ± 2.1%.

Turning to `COc1ccc(NC2=C([N+](=O)[O-])C3(C(=O)Nc4c(Cl)cc(Cl)cc43)C(C#N)=C(N)NN2)cc1` (centres unmarked) [Compound 5n, 3-amino-5',7'-dichloro-7-((4-methoxyphenyl)amino)-6-nitro-2'-oxo-1,2-dihydrospiro[[1,2]diazepine-5,3'-indoline]-4-carbonitrile], the inhibition at 50 µM at AChE (setting [1]) came to 35.4 ± 7.54%; at BChE (setting [1]), 46.5 ± 4.77%.

With `Cc1ccccc1NC1=C([N+](=O)[O-])C2(C(=O)Nc3c(Cl)cc(Cl)cc32)C(C#N)=C(N)NN1` (centres unmarked) [Compound 5m, 3-amino-5',7'-dichloro-6-nitro-2'-oxo-7-(o-tolylamino)-1,2-dihydrospiro[[1,2]diazepine-5,3'-indoline]-4-carbonitrile], the inhibition at 50 µM was determined as 24.8 ± 5.48% on AChE (setting [1]) and 41.9 ± 6.47% at BChE (setting [1]).

Turning to `N#CC1=C(N)NNC(Nc2cccc(O)c2)=C([N+](=O)[O-])C12C(=O)Nc1c(Br)cc(Br)cc12` (centres unmarked) [Compound 5q, 3-amino-5',7'-dibromo-7-((3-hydroxyphenyl)amino)-6-nitro-2'-oxo-1,2-dihydrospiro[[1,2]diazepine-5,3'-indoline]-4-carbonitrile], the inhibition at 50 µM at AChE (setting [1]) stood at 63.1 ± 4.43%; at BChE (setting [1]), 37.1 ± 0.84%. For the same molecule, the IC50 on AChE (mean ± S.E of three to five independent experiments, read-out: AChE IC50) was 12 ± 2.33 µM.

For the origin of these results see paper PMC10366214, “The anti-Alzheimer potential of novel spiroindolin-1,2-diazepine derivatives as targeted cholinesterase inhibitors with modified substituents” (Scientific Reports, 2023).
